Assay [1] has as its target T1, Acetylcholinesterase (Electrophorus electricus, UniProt O42275). Kind of assay: Competitive inhibition of Electrophorus electricus acetylcholinesterase in presence of varying acetylthiocholine iodide substrate level preincubated for 20 mins followed by substrate addition measured every 1 min for 30 mins.
Assay [2] concerns the target T1, Acetylcholinesterase. Kind of assay: Non-competitive inhibition of Electrophorus electricus acetylcholinesterase in presence of varying acetylthiocholine iodide substrate level preincubated for 20 mins followed by substrate addition measured every 1 min for 30 mins.
The target in assay [3] is T2, Cholinesterase (Equus caballus, UniProt P81908). Nature of the assay: Competitive inhibition of equine serum butyrylcholinesterase in presence of varying butyrylthiocholine iodide substrate level preincubated for 20 mins followed by substrate addition measured every 1 min for 30 mins.
T2 sequence (P81908 whole entry): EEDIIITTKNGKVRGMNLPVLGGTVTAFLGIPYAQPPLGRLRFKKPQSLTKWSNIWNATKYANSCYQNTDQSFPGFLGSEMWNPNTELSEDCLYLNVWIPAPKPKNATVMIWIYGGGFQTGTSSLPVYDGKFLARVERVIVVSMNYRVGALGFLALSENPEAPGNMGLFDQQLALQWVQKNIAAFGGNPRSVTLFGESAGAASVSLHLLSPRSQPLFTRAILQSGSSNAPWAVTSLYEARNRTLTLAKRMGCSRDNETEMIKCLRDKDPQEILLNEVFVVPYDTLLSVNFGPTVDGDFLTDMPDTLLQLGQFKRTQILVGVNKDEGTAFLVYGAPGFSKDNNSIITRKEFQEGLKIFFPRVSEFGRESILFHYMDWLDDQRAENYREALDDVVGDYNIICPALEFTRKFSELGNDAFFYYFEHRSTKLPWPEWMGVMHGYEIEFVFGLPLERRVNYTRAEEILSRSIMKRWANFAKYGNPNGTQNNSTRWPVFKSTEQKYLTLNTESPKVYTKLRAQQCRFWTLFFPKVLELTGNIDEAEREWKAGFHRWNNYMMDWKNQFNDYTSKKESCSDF
Assay [4] deals with T2, Cholinesterase. Kind of assay: Non-competitive inhibition of equine serum butyrylcholinesterase in presence of varying butyrylthiocholine iodide substrate level preincubated for 20 mins followed by substrate addition measured every 1 min for 30 mins.

The structures appear in SMILES notation.

Broadly, the Ki is the equilibrium dissociation constant of an inhibitor or competing ligand from its target.

T1 sequence (O42275 whole entry): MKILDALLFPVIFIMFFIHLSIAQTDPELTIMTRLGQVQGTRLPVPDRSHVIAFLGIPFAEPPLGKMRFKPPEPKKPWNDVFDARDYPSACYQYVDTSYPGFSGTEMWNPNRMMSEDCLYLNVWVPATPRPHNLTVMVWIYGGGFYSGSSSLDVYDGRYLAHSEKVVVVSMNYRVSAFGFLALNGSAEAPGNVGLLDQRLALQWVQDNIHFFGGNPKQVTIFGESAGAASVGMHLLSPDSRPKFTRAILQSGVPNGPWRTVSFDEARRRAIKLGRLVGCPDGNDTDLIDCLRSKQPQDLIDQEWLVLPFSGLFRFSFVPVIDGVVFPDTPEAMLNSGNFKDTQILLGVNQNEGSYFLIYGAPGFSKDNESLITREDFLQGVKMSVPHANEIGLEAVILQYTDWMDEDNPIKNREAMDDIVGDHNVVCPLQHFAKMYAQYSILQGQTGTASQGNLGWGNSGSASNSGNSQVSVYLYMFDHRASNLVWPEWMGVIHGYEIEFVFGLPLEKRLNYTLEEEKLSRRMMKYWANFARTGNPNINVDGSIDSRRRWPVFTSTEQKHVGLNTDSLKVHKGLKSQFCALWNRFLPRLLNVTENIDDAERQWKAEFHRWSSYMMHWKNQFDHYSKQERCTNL

In the case of `COc1ccc(NC(=N)NC(=N)N2CCN(C(=N)NC(=N)Nc3ccc(OC)cc3)CC2)cc1`, the Ki in assay [1] came out at 25.6 µM; in assay [2] it was 88.9 µM; in assay [3] it was 1.78 µM; in assay [4], 35.1 µM.
Consider `N=C(NC(=N)N1CCN(C(=N)NC(=N)Nc2ccc(Cl)cc2Cl)CC1)Nc1ccc(Cl)cc1Cl`, for which the Ki in assay [1] amounted to 9.34 µM; in assay [2], 75.3 µM; in assay [3] it was 0.41 µM; in assay [4] it was 7.51 µM.
The matching figures for `N=C(NC(=N)N1CCN(C(=N)NC(=N)Nc2ccccc2)CC1)Nc1ccccc1`: 13.5 µM, 69.2 µM, 0.95 µM and more than 40 µM.
On the same counts, the results for `CC(C)(C)c1ccc(NC(=N)NC(=N)N2CCN(C(=N)NC(=N)Nc3ccc(C(C)(C)C)cc3)CC2)cc1` are 1.41 µM, 21.8 µM, 0.12 µM and 4.41 µM.
The matching figures for `N=C(NC(=N)N1CCN(C(=N)NC(=N)Nc2cccc(Cl)c2)CC1)Nc1cccc(Cl)c1`: 4.45 µM, more than 30 µM, 0.74 µM and 12.2 µM.
As to `N=C(NC(=N)N1CCN(C(=N)NC(=N)Nc2ccccc2Br)CC1)Nc1ccccc1Br`, the Ki in assay [1] is 4.19 µM; in assay [2], 40.5 µM; in assay [3], 1.25 µM; in assay [4] it was 12.3 µM.
With `N=C(NC(=N)N1CCN(C(=N)NC(=N)Nc2ccc(OC(F)(F)F)cc2)CC1)Nc1ccc(OC(F)(F)F)cc1`, the Ki is 19.8 µM in assay [1], 62.2 µM in assay [2], 3.34 µM in assay [3] and more than 20 µM in assay [4].
The matching figures for `N=C(NC(=N)N1CCN(C(=N)NC(=N)Nc2cccc(Br)c2)CC1)Nc1cccc(Br)c1`: 6.17 µM, 25.4 µM, 0.23 µM and 10.3 µM.
The matching figures for `N=C(NC(=N)N1CCN(C(=N)NC(=N)Nc2ccc(Cl)cc2)CC1)Nc1ccc(Cl)cc1` [PICLOXYDINE]: 22 µM, 28.3 µM, 0.62 µM and 9.37 µM.
With `N=C(NC(=N)N1CCN(C(=N)NC(=N)Nc2ccc(F)cc2)CC1)Nc1ccc(F)cc1`, the inhibitory constant (Ki) worked out at 7.77 µM in assay [1], 16.2 µM in assay [2], 1.18 µM in assay [3] and 15.2 µM in assay [4].
In the case of `N=C(NC(=N)N1CCN(C(=N)NC(=N)Nc2cccc(I)c2)CC1)Nc1cccc(I)c1`, the Ki in assay [1] came out at 2.79 µM; in assay [2] it was 19.9 µM; in assay [3], 0.21 µM; in assay [4] it was 3.04 µM.
Regarding `COc1cccc(NC(=N)NC(=N)N2CCN(C(=N)NC(=N)Nc3cccc(OC)c3)CC2)c1`, the Ki in assay [1] came to 10.4 µM; in assay [2], 45.2 µM; in assay [3], 3.02 µM; in assay [4], 54.8 µM.
On to `Cc1ccc(NC(=N)NC(=N)N2CCN(C(=N)NC(=N)Nc3ccc(C)cc3)CC2)cc1`, for which the Ki in assay [1] was 9.25 µM; in assay [2], more than 100 µM; in assay [3], 0.45 µM; in assay [4], 11.8 µM.
On the same counts, the results for `COc1ccccc1NC(=N)NC(=N)N1CCN(C(=N)NC(=N)Nc2ccccc2OC)CC1` are 4.34 µM, 13.7 µM, 5.2 µM and 34 µM.
Consider `N=C(NC(=N)N1CCN(C(=N)NC(=N)Nc2ccccc2I)CC1)Nc1ccccc1I`, for which the Ki was 1.56 µM in assay [1], more than 100 µM in assay [2], 1.96 µM in assay [3] and 11.2 µM in assay [4].
Turning to `N=C(NC(=N)N1CCN(C(=N)NC(=N)Nc2cccc(F)c2)CC1)Nc1cccc(F)c1`, the inhibition constant Ki is 14.9 µM in assay [1], 104 µM in assay [2], 1.7 µM in assay [3] and 32.9 µM in assay [4].
For the compound `N=C(NC(=N)N1CCN(C(=N)NC(=N)Nc2ccc([N+](=O)[O-])cc2)CC1)Nc1ccc([N+](=O)[O-])cc1`, the Ki turned out to be 0.52 µM in assay [1], 2.96 µM in assay [2], 10.8 µM in assay [3] and 22.9 µM in assay [4].
The matching figures for `N=C(NC(=N)N1CCN(C(=N)NC(=N)Nc2ccccc2Cl)CC1)Nc1ccccc1Cl`: 6.11 µM, 66.7 µM, 1.85 µM and 12.7 µM.
In the case of `N=C(NC(=N)N1CCN(C(=N)NC(=N)Nc2ccccc2F)CC1)Nc1ccccc1F`, the Ki came to 14.9 µM in assay [1], 58.6 µM in assay [2], 6.82 µM in assay [3] and 25.5 µM in assay [4].
`COc1cc(NC(=N)NC(=N)N2CCN(C(=N)NC(=N)Nc3cc(OC)c(OC)c(OC)c3)CC2)cc(OC)c1OC`: the Ki in assay [1] was determined as 7.74 µM; in assay [2] it was 41.2 µM; in assay [3], 9.03 µM.
In the case of `N=C(NC(=N)N1CCN(C(=N)NC(=N)Nc2ccc(Br)cc2)CC1)Nc1ccc(Br)cc1`, the Ki in assay [1] was 3.43 µM; in assay [2], 35.5 µM; in assay [3], 0.61 µM; in assay [4] it was 3.84 µM.
On the same counts, the results for `N=C(NC(=N)N1CCN(C(=N)NC(=N)Nc2ccc(I)cc2)CC1)Nc1ccc(I)cc1` are 5.08 µM, 49.1 µM, 0.31 µM and 2.74 µM.

The values above are taken from ChEMBL document CHEMBL3877266, “Repurposing N,N'-bis-(arylamidino)-1,4-piperazinedicarboxamidines: An unexpected class of potent inhibitors of cholinesterases” (Eur J Med Chem, 2017).
